Data taken from publication PMC10803810, “Interaction of designed cationic antimicrobial peptides with the outer membrane of gram-negative bacteria” (Scientific Reports, 2024).

Columns and labels:
[1] = system: MDR P. aeruginosa clinical isolate 004B1-3; assay: Minimum inhibitory concentration (MIC) assay; type: cell-based, Pseudomonas aeruginosa; settings: MHB, 10^5 CFU/well, peptide 0-50 μM, 37 °C, 20 h, OD600; average of n = 6 replicates from N = 3 biological experiments; asterisk = beyond 50 μM
Experimental: (§1) Figure 1 Minimum inhibitory concentrations (MICs) for the present peptide library against three clinical isolates of MDR P. aeruginosa and a laboratory strain of B. subtilis. Increasing concentrations of peptides were independently incubated with bacterial cells for 20 h. MIC was calculated based on bacterial growth in an untreated control and in 1% Triton. Data represent the average from n = 6 replicates from N = 3 biological experiments performed on different days; error bars depict the standard error of the mean. Asterisk denotes MIC values beyond the highest tested concentration (50 μM). TEXT PRINTED IN THE PICTURE: Ponericin W1: Isolate 004B1-3 MIC (μM): 1.17; Isolate 035B7-1 MIC (μM): 2.86; Isolate 014B2-1 MIC (μM): 4.68; B. subtilis MIC (μM): 0.65 | PonAmp: Isolate 004B1-3 MIC (μM): 1.56; Isolate 035B7-1 MIC (μM): 2.60; Isolate 014B2-1 MIC (μM): 3.12; B. subtilis MIC (μM): 0.52 | PonN: Isolate 004B1-3 MIC (μM): 1.56; Isolate 035B7-1 MIC (μM): 2.60; Isolate 014B2-1 MIC (μM): 5.20; B. subtilis MIC (μM): 1.56 | PonC: Isolate 004B1-3 MIC (μM): 1.30; Isolate 035B7-1 MIC (μM): 1.56; Isolate 014B2-1 MIC (μM): 2.86; B. subtilis MIC (μM): 1.30 | PonAmp 2A: Isolate 004B1-3 MIC (μM): 11.46; Isolate 035B7-1 MIC (μM): 50; Isolate 014B2-1 MIC (μM): 50; B. subtilis MIC (μM): 0.85 | PonN 2A: Isolate 004B1-3 MIC (μM): 1.82; Isolate 035B7-1 MIC (μM): 1.82; Isolate 014B2-1 MIC (μM): 5.20; B. subtilis MIC (μM): 2.08 | PonC 2A: Isolate 004B1-3 MIC (μM): 2.08; Isolate 035B7-1 MIC (μM): 3.64; Isolate 014B2-1 MIC (μM): 6.25; B. subtilis MIC (μM): 1.04 | PonAmp 3A: B. subtilis MIC (μM): 0.78 | PonN 3A: Isolate 004B1-3 MIC (μM): 4.69; Isolate 035B7-1 MIC (μM): 16.67; Isolate 014B2-1 MIC (μM): 23; B. subtilis MIC (μM): 8.30 | PonC 3A: Isolate 004B1-3 MIC (μM): 5.73; Isolate 035B7-1 MIC (μM): 33.33; Isolate 014B2-1 MIC (μM): 50; B. subtilis MIC (μM): 1.56 | PonAmp 4A: B. subtilis MIC (μM): 3.12 | PonN 4A: B. subtilis MIC (μM): 12.5 | PonC 4A: B. subtilis MIC (μM): 10.42
(§2) Clinical isolates of P. aeruginosa [Research Ethics Board (REB) #1000019444] were obtained with informed consent from CF patients with chronic infection followed at the Hospital for Sick Children (Toronto, Canada)[66]. Consent was obtained from a parent or legal guardian if not of age. All methods were performed in accordance with the relevant guidelines and regulations for research involving human subjects at the Hospital for Sick Children. Antimicrobial susceptibility testing was performed as per the Clinical Laboratory Standards Institute (CLSI)[67].
(§3) Three clinical isolates of MDR P. aeruginosa were previously obtained from CF patients with chronic infection at the Hospital for Sick Children [Research Ethics Board (REB) #1000019444] (Toronto, Canada) and selected for use in this work along with a laboratory strain of B. subtilis. Serial dilutions of peptides (10 μL) were prepared to achieve concentrations from 50 to 0 μM on a sterile 96-well clear bottom plate. Cells were resuspended in Mueller − Hinton Broth (MHB) and added at 10^5 CFU/well to achieve a final volume of 100 μL. Peptide and bacteria were allowed to incubate at 37 °C for 20 h. OD600 was measured at the end of the incubation period. Reports of MIC are background subtracted from an MHB-only control.

[2] = system: MDR P. aeruginosa clinical isolate 014B2-1; assay: Minimum inhibitory concentration (MIC) assay; type: cell-based, Pseudomonas aeruginosa; settings: MHB, 10^5 CFU/well, peptide 0-50 μM, 37 °C, 20 h, OD600; average of n = 6 replicates from N = 3 biological experiments; asterisk = beyond 50 μM
Experimental: as §1, §2, §3

[3] = system: MDR P. aeruginosa clinical isolate 035B7-1; assay: Minimum inhibitory concentration (MIC) assay; type: cell-based, Pseudomonas aeruginosa; settings: MHB, 10^5 CFU/well, peptide 0-50 μM, 37 °C, 20 h, OD600; average of n = 6 replicates from N = 3 biological experiments; asterisk = beyond 50 μM
Experimental: as §1, §2, §3

[4] = system: laboratory strain of B. subtilis; assay: Minimum inhibitory concentration (MIC) assay; type: cell-based, Bacillus subtilis; settings: MHB, 10^5 CFU/well, peptide 0-50 μM, 37 °C, 20 h, OD600; average of n = 6 replicates from N = 3 biological experiments
Experimental: as §1, §3

[5] = system: MDR isolates of P. aeruginosa; type: cell-based, Pseudomonas aeruginosa; settings: for average MIC against MDR P. aeruginosa isolates: average over the clinical isolates
Source text: We began our investigations by testing the antimicrobial efficacy of our peptide library against P. aeruginosa, an opportunistic gram-negative bacterium found in patients with cystic fibrosis (CF)[44],[45]. MDR isolates of P. aeruginosa obtained from chronically infected CF patients were independently challenged with the peptide library using a minimum inhibitory concentration assay (MIC, defined as the lowest drug concentration required to inhibit bacterial growth). […] A similar trend is observed among the 3A analogs. At four Leu-to-Ala substitutions, activity is universally lost as the sequences no longer meet the minimum hydrophobicity threshold for spontaneous membrane insertion.
Figure 1 Minimum inhibitory concentrations (MICs) for the present peptide library against three clinical isolates of MDR P. aeruginosa and a laboratory strain of B. subtilis. Increasing concentrations of peptides were independently incubated with bacterial cells for 20 h. MIC was calculated based on bacterial growth in an untreated control and in 1% Triton. Data represent the average from n = 6 replicates from N = 3 biological experiments performed on different days; error bars depict the standard error of the mean. Asterisk denotes MIC values beyond the highest tested concentration (50 μM). […]
Three clinical isolates of MDR P. aeruginosa were previously obtained from CF patients with chronic infection at the Hospital for Sick Children [Research Ethics Board (REB) #1000019444] […] OD600 was measured at the end of the incubation period. […]

[6] = system: LPS from P. aeruginosa 10; assay: Dansyl-polymyxin (DPX) displacement assay; type: binding, Pseudomonas aeruginosa; settings: 3 μg/mL LPS saturated by 2.5 μM DPX, peptide added in 1 μM increments up to 10 μM, 10 mM Tris 10 mM NaCl pH 7.4; ex 340 / em 485 nm; n = 3
Source text: We then sought to evaluate whether the relative trends in antimicrobial efficacy observed between Lys-clustered versus helical amphipathic sequences against gram-negative bacteria correlate to their degree of interaction with the OM. In doing so, we tested the binding affinity of our peptide library to LPS using a Dansyl-Polymyxin (DPX) displacement assay. DPX is a fluorescently-tagged derivative of Polymyxin B that highly associates with polyanionic sites on LPS[46]. Dansyl fluorescence reaches a maximum when surrounded by a hydrophobic environment (ex. lipid A moiety of LPS), thereby enabling us to track bound and unbound states of the LPS-DPX complex. First, we empirically determined the concentration of DPX required to completely saturate a set quantity of LPS in solution (Fig. 2). Upon identifying the saturation threshold, we assessed the ability of our peptide library to outcompete for LPS binding by displacing bound DPX. […] High sequence hydrophobicity is observed to supplement peptide propensity to displace DPX as the binding affinity of PonN and PonC to LPS progressively weakens with increasing Leu-to-Ala substitutions (Fig. 3b–d).
Lyophilized stocks of LPS from P. aeruginosa 10 (#L9143) and Dansyl-labelled polymyxin B (DPX) suspended in water (#SBR00029) were purchased from Sigma. 1 mg/mL LPS was prepared in water and stored at 4 °C until use. As described in detail elsewhere, saturation of the LPS-DPX complex was first determined on a Photon Technology International fluorometer using a 1 cm cuvette. Stepwise additions of DPX (in 0.25 μM increments up to 5 μM) was added to 3 μg/mL LPS suspended in 10 mM Tris 10 mM NaCl buffer at pH 7.4. DPX fluorescence was excited at 340 nm (2 nm slit width) and emission was recorded at 485 nm (5 nm slit width).
To measure DPX displacement, peptides were independently added at 1 μM increments (up to 10 μM) to preparations containing 3 μg/mL LPS saturated by 2.5 μM DPX. DPX fluorescence was read immediately upon peptide addition. Drops in fluorescence are interpreted as the removal of DPX from LPS due to competitive binding by peptide.

[7] = in vitro dye release; cited from earlier work
Source text: In contrast, Lys-clustered PonN and PonC have been previously found to exclusively adopt random coils when exposed to liposomes composed of an approximate 3:1 ratio of PE:PG phospholipids, representative of the bacterial IM[37]. The latter configuration ostensibly deters peptide capacity for pore formation and/or carpeted assembly compared to helical amphipathic constructs such as PonAmp, which continues to display high helical propensity at both membrane interfaces. The comparatively shallow and/or transient nature of interaction between Lys-clustered constructs and the IM interface was f ...

human red blood cells = settings: up to 50 μM; cited from earlier work
Source text: In designing the Ponericin peptide library, our principal goal is to gauge systematically how the relative distribution of charged residues influences peptide-membrane interactions. As well, hydrophobicity is of particular interest to our investigations as earlier studies on the Ponericin W1 library reveal the highly toxic nature of native Ponericin W1 against mammalian red blood cells. Thus, stepwise Leu-to-Ala substitutions (up to four substitutions) were subsequently applied to each parent analog to simultaneously evaluate the contribution of overall sequence hydrophobicity. All peptide ...

| Substance | MIC, Isolate 004B1-3 [1] | MIC, Isolate 014B2-1 [2] | MIC, Isolate 035B7-1 [3] | MIC, B. subtilis [4] | average MIC against MDR P. aeruginosa isolates [5] | Displacement of DPX from LPS (change in DPX fluorescence) [6] | Rupture of liposome mimetics of the bacterial IM (dye release) [7] | Toxicity against mammalian red blood cells (human red blood cells) | MIC against MDR P. aeruginosa isolates ([5]; three clinical isolates from CF patients, isolate not specified, 20 h, highest tested 50 μM) |
| --- | --- | --- | --- | --- | --- | --- | --- | --- | --- |
| H-KKKKKKWAGSAAIGALLPSVVGLFQ-NH2 [PonN 2A] | 1.82 µM | 5.20 µM | 1.82 µM | 2.08 µM | ~ 3 μM | – | – | – | – |
| H-WAGSAAIGAALPSVVGAFQKKKKKK-NH2 [PonC 4A] | – | – | – | 10.42 µM | – | – | – | – | – |
| H-WAGSAAIGALLPSVVGLFQKKKKKK-NH2 [PonC 2A] | 2.08 µM | 6.25 µM | 3.64 µM | 1.04 µM | ~ 4 μM | – | – | – | – |
| H-WLKKALKIGAKLLPSVVKLFKGSGQ-NH2 [PonAmp] | 1.56 µM | 3.12 µM | 2.60 µM | 0.52 µM | – | negligible change in fluorescence | ruptured instantaneously | – | – |
| H-WAKKAAKIGAKALPSVVKAFKGSGQ-NH2 [PonAmp 4A] | – | – | – | 3.12 µM | – | – | – | – | – |
| H-WAKKAAKIGAKALPSVVKLFKGSGQ-NH2 [PonAmp 3A] | – | – | – | 0.78 µM | – | – | – | – | – |
| H-KKKKKKWAGSAAIGAALPSVVGAFQ-NH2 [PonN 4A] | – | – | – | 12.5 µM | – | – | – | – | – |
| H-KKKKKKWLGSALIGALLPSVVGLFQ-NH2 [PonN] | 1.56 µM | 5.20 µM | 2.60 µM | 1.56 µM | – | highly interrupt the LPS-DPX complex | more gradually | – | – |
| H-WLGSALIGALLPSVVGLFQKKKKKK-NH2 [PonC] | 1.30 µM | 2.86 µM | 1.56 µM | 1.30 µM | – | highly interrupt the LPS-DPX complex | more gradually | – | – |
| H-KKKKKKWAGSAAIGAALPSVVGLFQ-NH2 [PonN 3A] | 4.69 µM | 23 µM | 16.67 µM | 8.30 µM | – | – | – | – | – |
| H-WAGSAAIGAALPSVVGLFQKKKKKK-NH2 [PonC 3A] | 5.73 µM | 50 µM | 33.33 µM | 1.56 µM | – | – | – | – | – |
| H-WLGSALKIGAKLLPSVVGLFKKKKQ-NH2 [Ponericin W1, reference compound] | 1.17 µM | 4.68 µM | 2.86 µM | 0.65 µM | – | negligible change in fluorescence | – | highly toxic | – |
| H-WAKKAAKIGAKLLPSVVKLFKGSGQ-NH2 [PonAmp 2A] | 11.46 µM | 50 µM | 50 µM | 0.85 µM | – | – | – | – | 50 µM |
